Data on 7 molecules can be found in patent publication US11832662B2, “Methods and devices for preventing viral transmission” (priority 2020, dated 2023).

The test system of assay [1] is HUVEC cells. In words: EF-induced elongation of endothelial cells (long:short axis ratio). The assay is classed as cell-based, human. Conditions: versus control. As for the experimental part: HUVEC cells were seeded in a trough formed by two parallel (1 cm apart) strips of glass coverslip (No. 1, length of 22 mm) fixed to the base of the dish with silicone grease. Scratch lines were made perpendicular to the long axis of the chamber with a fine sterile needle and used as reference marks for directed cell migration. Cells were incubated for 24-48 hours (37° C., 5% CO2) before a roof coverslip was applied and sealed with silicone grease. The final dimensions of the chamber, through which current was passed, were 22×10×0.2 mm. Agar-salt bridges not less than 15 cm long were used to connect silver/silver-chloride electrodes in beakers of Steinberg's solution (58 mM NaCl, 0.67 mM KCl, 0.44 mM Ca(NO3)2, 1.3 mM MgSO4, 4.6 mM Trizma base, pH 7.8-8.0), to pools of excess culture medium at either side of the chamber. Field strengths were measured directly at the beginning of, the end of and during each experiment. No fluctuations in field strength were observed. […] (50 μM), the Rho kinase inhibitor Y27632 (50 μM), both Akt and Rho kinase inhibitors (10 μM each) or latrunculin (50 nM) for 1 hour before EF stimulation. The same concentration of drug was present during EF exposure in a CO2 incubator.
A series of images was taken with an image analyser immediately before EF exposure and at 4, 8 and 24 hours of EF exposure. Cell orientation was quantified as an orientation index (Oi), which is defined as Oi=cos 2(α), where a is the angle formed by the long axis of a cell with a line drawn perpendicular to the field lines. A cell with its long axis parallel to the vector of the EF will have an Oi of −1, and a cell with its long axis exactly perpendicular to the EF vector will have an Oi of +1. […] The significance of this two-dimensional orientation distribution against randomness was calculated using Rayleigh's distribution. A long:short axis ratio was calculated for assessment of elongation.
HUVEC cells elongated dramatically in an EF. […] We quantified the elongation of the cells using a long:short axis ratio. […]

Assay [2] has as its system HUVEC cells. In words: EF-induced reorientation of endothelial cells (orientation index Oi). The assay is classed as cell-based, human.
Method: HUVEC cells were seeded in a trough formed by two parallel (1 cm apart) strips of glass coverslip (No. 1, length of 22 mm) fixed to the base of the dish with silicone grease. Scratch lines were made perpendicular to the long axis of the chamber with a fine sterile needle and used as reference marks for directed cell migration. Cells were incubated for 24-48 hours (37° C., 5% CO2) before a roof coverslip was applied and sealed with silicone grease. The final dimensions of the chamber, through which current was passed, were 22×10×0.2 mm. Agar-salt bridges not less than 15 cm long were used to connect silver/silver-chloride electrodes in beakers of Steinberg's solution (58 mM NaCl, 0.67 mM KCl, 0.44 mM Ca(NO3)2, 1.3 mM MgSO4, 4.6 mM Trizma base, pH 7.8-8.0), to pools of excess culture medium at either side of the chamber. Field strengths were measured directly at the beginning of, the end of and during each experiment. […] (50 μM), the Rho kinase inhibitor Y27632 (50 μM), both Akt and Rho kinase inhibitors (10 μM each) or latrunculin (50 nM) for 1 hour before EF stimulation. The same concentration of drug was present during EF exposure in a CO2 incubator.
A series of images was taken with an image analyser immediately before EF exposure and at 4, 8 and 24 hours of EF exposure. Cell orientation was quantified as an orientation index (Oi), which is defined as Oi=cos 2(α), where a is the angle formed by the long axis of a cell with a line drawn perpendicular to the field lines. A cell with its long axis parallel to the vector of the EF will have an Oi of −1, and a cell with its long axis exactly perpendicular to the EF vector will have an Oi of +1. A randomly oriented population of cells will have an average Oi {defined as [Σn cos 2(α)]÷n} of 0. The significance of this two-dimensional orientation distribution against randomness was calculated using Rayleigh's distribution. A long:short axis ratio was calculated for assessment of elongation.
Assay [3] has as its system HaCaT human keratinocytes. In words: Scratch assay, keratinocyte migration, Example 3. The assay is classed as cell-based. Conditions: LLEC-treated cells, N-acetylcysteine 5 mM 1 h pretreatment, IGF-1R inhibitor picropodophyllin 50 nM.
Where [4] appears, read: drug present 1 hour before and during EF exposure.

Like-named read-outs stand apart in the source and are kept apart here.

As to “1-L-6-hydroxymethyl-chiro-inositol 2-[(R)-2-O-methyl-3-O-octadecylcarbonate] [Akt inhibitor]”, the “long:short axis ratio / elongation response in EF-treated cells” value with HUVEC cells [1] is reported as “significantly decreased”. Besides, the “orientation response of cells in an EF” value with HUVEC cells [2] (setting [4]) is “significantly decreased”. As to `COc1cc([C@@H]2c3cc4c(cc3[C@H](O)[C@H]3COC(=O)[C@@H]23)OCO4)cc(OC)c1OC` [IGF-1R inhibitor, picropodophyllin], the “LLEC-increased keratinocyte migration in presence of blocker” value in assay [3] is reported as “attenuated the increased keratinocyte migration”.

`C/C1=C/C(=O)O[C@@H]2C[C@@H](CC[C@H](C)/C=C\C=C\CC1)O[C@@](O)([C@@H]1CSC(=O)N1)C2` [Latrunculin A]: the “long:short axis ratio / elongation response in EF-treated cells” value in the assay with HUVEC cells [1] was “completely abolished”. The “orientation response of cells in an EF” value with HUVEC cells [2] (setting [4]) is on record as “suppressed the orientation response significantly”. On to `CC(=O)N[C@@H](CS)C(=O)O` [N-Acetyl Cysteine], for which the “LLEC-increased keratinocyte migration in presence of blocker” value in assay [3] is recorded as “failed to reproduce the increased migration”; in assay [3] (listed as N-acetyl cysteine) it was “prevented”. For `N#CC(=C(/N)Sc1ccccc1N)/C(C#N)=C(\N)Sc1ccccc1N` [U0126], in the assay on HUVEC cells [2], the “orientation index Oi” value amounted to 0.33±0.03 and the “orientation response of cells in an EF” value is “decreased the orientation to a similar extent”. For the molecule `COc1cc2ncnc(Nc3ccc(Cl)cc3F)c2cc1OC` [VEGFR inhibitor, 4-[(4′-chloro-2′-fluoro)phenylamino]-6,7-dimethoxyquinazoline], the “orientation response of cells in an EF” value in the assay on HUVEC cells [2] (setting [4]) is “completely abolished”. In the case of `C[C@@H](N)[C@H]1CC[C@H](C(=O)Nc2ccncc2)CC1` [Y27632], in the assay with HUVEC cells [1], the “long:short axis ratio / elongation response in EF-treated cells” value is on record as “significantly decreased”. Besides, the “orientation response of cells in an EF” value with HUVEC cells [2] (setting [4]) is on record as “decreased the orientation response significantly”.
